Biological target: Metabotropic glutamate receptor 5 (Homo sapiens, UniProt P41594)
Test: The Fluo 8-AM fluorescent dye is an […] derivative of Fluo 8 which can easily penetrate the cell membrane into the cell by culture. The fluorescent dye into the cell will be hydrolyzed by intracellular esterase, the resulting Fluo 8 cannot easily pass through the lipid bimolecular membrane as a polar molecule, and will retain in the cell, and combine with calcium (Ca2+) to produce fluoresces.Cells expressing GPCR receptor protein (mGluR5) were first calibrated with a calcium ion sensitive fluorescent probe and then stimulated with the compound. After stimulation, the activation of the receptor lead to the calcium ion mobilization, and the fluorescent probe captures the calcium ion to induce the fluorescence signal. The signal can be read by a fluorescent plate reader. The fluorescent plate reader contains a sampling head for compound addition, thus enabling the change of the fluorescence value of the compound be read in real time.
Format: cell-based

Metabotropic glutamate receptor 5, sequence (P41594 whole entry): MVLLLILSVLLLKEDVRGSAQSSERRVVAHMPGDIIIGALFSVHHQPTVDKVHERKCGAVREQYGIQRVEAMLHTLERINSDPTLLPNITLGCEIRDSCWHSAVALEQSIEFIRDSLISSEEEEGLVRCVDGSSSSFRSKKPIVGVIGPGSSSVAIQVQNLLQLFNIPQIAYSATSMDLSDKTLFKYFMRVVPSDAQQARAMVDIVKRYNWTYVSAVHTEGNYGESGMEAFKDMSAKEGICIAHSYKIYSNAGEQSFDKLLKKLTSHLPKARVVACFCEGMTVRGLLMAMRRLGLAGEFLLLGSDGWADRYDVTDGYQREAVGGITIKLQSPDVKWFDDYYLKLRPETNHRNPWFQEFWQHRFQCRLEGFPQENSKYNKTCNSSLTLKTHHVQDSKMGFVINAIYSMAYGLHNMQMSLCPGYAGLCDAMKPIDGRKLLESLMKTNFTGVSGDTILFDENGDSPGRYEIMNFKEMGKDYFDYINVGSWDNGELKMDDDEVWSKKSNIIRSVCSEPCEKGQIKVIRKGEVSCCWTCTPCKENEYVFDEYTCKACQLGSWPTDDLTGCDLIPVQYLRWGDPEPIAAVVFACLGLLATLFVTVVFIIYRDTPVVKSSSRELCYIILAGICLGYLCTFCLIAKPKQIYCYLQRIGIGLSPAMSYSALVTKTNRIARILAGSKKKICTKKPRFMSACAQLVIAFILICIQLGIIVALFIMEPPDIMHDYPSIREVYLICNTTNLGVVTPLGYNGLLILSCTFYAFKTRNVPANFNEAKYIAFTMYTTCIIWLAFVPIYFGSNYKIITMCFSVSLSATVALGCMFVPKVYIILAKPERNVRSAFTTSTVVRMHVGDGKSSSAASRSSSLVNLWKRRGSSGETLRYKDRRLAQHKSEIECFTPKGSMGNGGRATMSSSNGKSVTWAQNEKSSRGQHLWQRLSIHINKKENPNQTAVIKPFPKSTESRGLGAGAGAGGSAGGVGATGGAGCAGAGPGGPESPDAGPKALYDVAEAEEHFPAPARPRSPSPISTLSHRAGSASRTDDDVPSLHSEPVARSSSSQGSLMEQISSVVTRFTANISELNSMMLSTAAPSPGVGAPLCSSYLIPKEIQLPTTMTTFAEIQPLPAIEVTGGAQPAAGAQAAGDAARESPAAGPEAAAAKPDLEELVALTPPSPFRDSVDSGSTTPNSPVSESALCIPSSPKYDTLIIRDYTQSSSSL

**Q.** How did the IC50 turn out when `Cc1nc(C#Cc2cccc(C(=O)N3CCc4ccccc4C3)c2)cs1` was run?
**A.** Its IC50 is 14.4 nM.

**Q.** Which IC50 does the source give for `Cc1nc(C#Cc2cccc(C(=O)Nc3cccnc3)c2)cs1` here?
**A.** The IC50 was 14.2 nM.
